Assay results from US20220008325A1, “WHITE PINE BARK EXTRACT FOR DECREASING ENDOTHELIN-1 SECRETION, STEM CELL FACTOR SYNTHESIS AND PROTEIN CARBONYLATION” (International Flavors & Fragrances Inc., priority 2018, published 2022).

Tested on: pigmented reconstructed human epidermis (RHE)
Test: Melanin synthesis in ex vivo pigmented reconstructed human epidermis (Fontana-Masson staining)
Format: cell-based
Conditions: pigmented RHE phototype IV, topical formulation (2% extract or 1% kojic acid), 3 days, 2 applications per day, vs placebo formula
Protocol: Non-pigmented reconstructed human epidermis (RHE) and pigmented RHE phototype IV were prepared by seeding human melanocytes and keratinocytes in an incubation chamber placed on the epidermal side of a dead dermis at 4×10^5 cells per cm^2, at a 1:20 melanocyte:keratinocyte ratio. After 24 hours, the incubation chamber was removed and the dead dermis was submerged for 3 days. The dead dermis was moved to the air-liquid interface for 8 days prior to treatment. After 8 days of exposure to the air-liquid interface, the pigmented RHE and non-pigmented RHE were contacted with Pinus strobus bark extract, placebo, negative control (no treatment), or positive control (kojic acid). This involved topical application of each formulation for 3 days, 2 applications per day (see FIG. 5). After 3 days, pigmented RHE was incubated for 3 days in the presence of a 1:1 mixture of fresh media and conditioned media from the non-pigmented RHE. The formulations included Heliogel™ (sodium acrylates copolymer, hydrogenated polyisobutene, phospholipids, polyglyceryl-10 stearate, sunflower seed oil; Lucas Meyer Cosmetics), Saboderm TCC (Caprylic/Capric Triglyceride; SABO, S.p.A), and Dekaben C (phenoxyethanol, methylparaben, ethylparaben, butylparaben, isobutylparaben, propylparaben; Jan Dekker BV) in the amounts listed in Table 1. Pigmentation was evaluated by Fontana-Masson staining. […]

SMILES: O=c1cc(CO)occ1O [Kojic acid]
- decrease in melanin synthesis: 8.1%
